Data from patent US20250206732A1, “COMPOUNDS AND METHODS FOR THE TARGETED DEGRADATION OF KRAS” (Arvinas Operations, Inc., priority 2022, published 2025).

Biological target: T1, AsPC-1 HiBiT-KRASG12D (Homo sapiens, UniProt P01116, G12D)
T1 construct: insert the HiBiT tag onto the N-terminus of one or more of the endogenous KRAS alleles; endogenous in cells; host or cells: AsPC-1 (ATCC CRL-1682), CRISPR-Cas9 knock-in clone, one tagged allele
Test: HiBiT degradation assay (G12D), AsPC-1 HiBiT-KRASG12D cells
Assay type: cell-based
Details: 24 hours treatment; for Dmax: ASPC1, AsPC-1 HiBiT-KRASG12D cells, maximum degradation observed; for DC50: AsPC-1 HiBiT-KRASG12D cells, HiBiT luminescence
Outline: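 Luminescence read-out of HiBiT-tagged endogenous KRASG12D in AsPC-1 cells after 24 h compound exposure at 37° C; lytic Nano-Glo HiBiT detection, 45 min at room temperature. A parallel alamar blue read (4 h) checked viability, normalized to DMSO-only controls.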

T1 sequence (P01116 1-188 isoform P01116-2 G12D): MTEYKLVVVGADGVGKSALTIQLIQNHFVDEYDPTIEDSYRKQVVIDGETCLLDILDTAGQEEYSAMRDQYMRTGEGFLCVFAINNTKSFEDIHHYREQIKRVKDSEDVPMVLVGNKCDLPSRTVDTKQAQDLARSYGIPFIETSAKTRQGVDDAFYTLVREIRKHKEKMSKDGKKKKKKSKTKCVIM

Row | SMILES | Dmax | DC50
1 | CCc1cccc2cc(O)cc(-c3ncc4c(N5CC6CCC(C5)N6)nc(OCCN5CC[C@H]6CN(c7cc([C@H](C(=O)N8C[C@H](O)C[C@H]8C(=O)N[C@@H](C)c8ccc(-c9scnc9C)cc8)C(C)C)on7)C[C@H]6C5)nc4c3F)c12 (relative stereo) [Compound 69, (2S,4R)-1-[(2R*)-2-{3-[(3aR**,7aR***)-5-{2-[(4-{3,8-diazabicyclo[3.2.1]octan-3-yl}-7-(8-ethyl-3-hydroxynaphthalen-1-yl)-8-fluoropyrido[4,3-d]pyrimidin-2-yl)oxy]ethyl}-octahydro-1H-pyrrolo[3,4-c]pyridin-2-yl]-1,2-oxazol-5-yl}-3-methylbutanoyl]-4-hydroxy-N-[(1S)-1-[4-(4-methyl-1,3-thiazol-5-yl)phenyl]ethyl]pyrrolidine-2-carboxamide] | 80 to 100% | < 600 nM
2 | CCc1cccc2cc(O)cc(-c3ncc4c(N5CC6CCC(C5)N6)nc(OCCN5CCC(Oc6cc([C@@H](C(=O)N7C[C@H](O)C[C@H]7C(=O)N[C@@H](C)c7ccc(-c8scnc8C)cc7)C(C)C)on6)CC5)nc4c3F)c12 (relative stereo) [Compound 139, (2S,4R)-1-[(2R*)-2-{3-[(1-{2-[(4-{3,8-diazabicyclo[3.2.1]octan-3-yl}-7-(8-ethyl-3-hydroxynaphthalen-1-yl)-8-fluoropyrido[4,3-d]pyrimidin-2-yl)oxy]ethyl}piperidin-4-yl)oxy]-1,2-oxazol-5-yl}-3-methylbutanoyl]-4-hydroxy-N-[(1S)-1-[4-(4-methyl-1,3-thiazol-5-yl)phenyl]ethyl]pyrrolidine-2-carboxamide] | < 20% | 1000 to 3000 nM
3 | C#Cc1c(F)ccc2cc(O)cc(-c3ncc4c(N5CC6CCC(C5)N6)nc(OCCN5CCC(F)(COc6cc([C@H](C(=O)N7C[C@H](O)C[C@H]7C(=O)N[C@@H](C)c7ccc(-c8scnc8C)cc7)C(C)C)on6)CC5)nc4c3F)c12 [Compound 153, (2S,4R)-1-[(2R)-2-{3-[(1-{2-[(4-{3,8-diazabicyclo[3.2.1]octan-3-yl}-7-(8-ethynyl-7-fluoro-3-hydroxynaphthalen-1-yl)-8-fluoropyrido[4,3-d]pyrimidin-2-yl)oxy]ethyl}-4-fluoropiperidin-4-yl)methoxy]-1,2-oxazol-5-yl}-3-methylbutanoyl]-4-hydroxy-N-[(1S)-1-[4-(4-methyl-1,3-thiazol-5-yl)phenyl]ethyl]pyrrolidine-2-carboxamide] | 80 to 100% | < 600 nM
4 | CCc1cccc2cc(O)cc(-c3ncc4c(N5CC6CCC(C5)N6)nc(OC[C@]56CCCN5[C@H](COC(=O)N5C[C@H](C)N(c7cc([C@H](C(=O)N8C[C@H](O)C[C@H]8C(=O)N[C@@H](C)c8ccc(-c9scnc9C)cc8)C(C)C)on7)C[C@H]5C)CC6)nc4c3F)c12 [Compound 296, [(3S,8R)-8-[[4-(3,8-diazabicyclo[3.2.1]octan-3-yl)-7-(8-ethyl-3-hydroxy-1-naphthyl)-8-fluoro-pyrido[4,3-d]pyrimidin-2-yl]oxymethyl]-1,2,3,5,6,7-hexahydropyrrolizin-3-yl]methyl (2R,5S)-4-[5-[(1R)-1-[(2S,4R)-4-hydroxy-2-[[(1S)-1-[4-(4-methylthiazol-5-yl)phenyl]ethyl]carbamoyl]pyrrolidine-1-carbonyl]-2-methyl-propyl]isoxazol-3-yl]-2,5-dimethyl-piperazine-1-carboxylate] | 80 to 100% | < 600 nM
5 | CCc1cccc2cc(O)cc(-c3ncc4c(N5CC6CCC(C5)N6)nc(OCCN5C[C@@H]6CN(c7cc([C@@H](C(=O)N8C[C@H](O)C[C@H]8C(=O)N[C@@H](C)c8ccc(-c9scnc9C)cc8)C(C)C)on7)C[C@H]6C5)nc4c3F)c12 (relative stereo) [Compound 78, (2S,4R)-1-[(2R*)-2-{3-[(3aR,6aR)-5-{2-[(4-{3,8-diazabicyclo[3.2.1]octan-3-yl}-7-(8-ethyl-3-hydroxynaphthalen-1-yl)-8-fluoropyrido[4,3-d]pyrimidin-2-yl)oxy]ethyl}-octahydropyrrolo[3,4-c]pyrrol-2-yl]-1,2-oxazol-5-yl}-3-methylbutanoyl]-4-hydroxy-N-[(1S)-1-[4-(4-methyl-1,3-thiazol-5-yl)phenyl]ethyl]pyrrolidine-2-carboxamide] | 20 to 60% | 1000 to 3000 nM
